According to paper PMC4747952, “Development of TASP0410457 (TASP457), a novel dihydroquinolinone derivative as a PET radioligand for central histamine H3 receptors” (EJNMMI Research, 2016):

Tests used:
[1] = target: T1, H3R (Rattus norvegicus, UniProt Q9QYN8); test: PET imaging of rat brains; format: in vivo; details: for cerebellar SUV at 15 min after radioligand injection: mean ± S.D.
T1 construct: from tissue; host or cells: brain of living Sprague-Dawley rats
Protocol: Six-week-old male Sprague-Dawley rats were purchased from Japan SLC (Shizuoka, Japan). PET scans were performed using a microPET Focus 220 small-animal scanner (Siemens Medical Solutions USA, Knoxville, TN). The rats were anesthetized with 1.5–2 % isoflurane during the imaging session, while their heart rate and blood oxygen saturation were monitored by pulse oximeter (CANL-425SVA; Med Associates, St. Albans, VT). Body temperature was kept at 37 °C with a heating pad (BWT-100; Bio Research Center, Aichi, Japan). Following the transmission scans for attenuation correction using a ^68Ge-^68Ga point source, emission scans were performed for 90 min in 3D list-mode with an energy window of 350–750 keV, immediately after the intravenous injection of each radioligand. Mean ± S.D. of the injected radioactivity of [^11C]TASP0410457, [^11C]TASP0434988, and [^11C]TASP0390136 was 119 ± 26 MBq, 132 ± 34 MBq, and 124 ± 17 MBq, respectively (n = 3–5). Mean ± S.D. of the mass doses of [^11C]TASP0410457, [^11C]TASP0434988, and [^11C]TASP0390136 was 2.4 ± 1.2 μg/kg, 1.9 ± 0.4 μg/kg, and 4.2 ± 1.6 μg/kg, respectively (n = 3–5).
To assess the specificity of radioligand binding, thioperamide was injected intravenously at a dose of 10 mg/kg at 30 s before the injection of each radioligand.
All list-mode data were sorted into 3D sinograms, which were then Fourier rebinned into 2D sinograms (frames: 1 min × 4, 2 min × 8 and 5 min × 14). Images were reconstructed using 2D-filtered back-projection with a 0.5-mm Hanning filter.
PET image and magnetic resonance imaging (MRI) template were co-registered using PMOD software (PMOD version 3.206; Zurich, Switzerland) according to the following procedure as in our previous works: Outline of the whole brain and positions of eyes in PET images at an early phase of the scan were initially matched to those in MRI images, and then further translations and rotations of PET images were manually performed for fine alignments. Finally, parameters for the co-registration were applied to the entire dynamic PET data. Regions of interest (ROIs) were placed on the striatum, hippocampus, and cerebellum using PMOD software with reference to the MRI template as described elsewhere. The tissue time-activity curves (TACs) for these ROIs were generated by calculating the SUV for each time frame as follows: SUV=radioactivityBq/g×bodyweightg/injectedradiotracerdoseBq
The binding potentials relative to the non-displaceable uptake (BPND) in the striatum and hippocampus were estimated using the simplified reference tissue model (SRTM) with PMOD software using the cerebellum as a reference region, as the rat cerebellum is devoid of H3R [26].

[2] = system: central H3Rs; test: Receptor occupancy assay, [^11C]TASP0410457-PET, Lassen's plot; format: in vivo, monkey; details: monkey
Protocol: Occupancy of central H3Rs by ciproxifan, a selective antagonist/inverse agonist, was quantified by [^11C]TASP0410457-PET scans of an anesthetized monkey with arterial blood sampling. […] Receptor occupancy of ciproxifan was determined using Lassen’s plot without any reference regions using the following equation: VT^Baseline−VT^Ciproxifan=OccVT^Baseline−VND where VT^Baseline and VT^Ciproxifan are the regional VT values at baseline and in the ciproxifan challenge, respectively, VND is the non-displaceable distribution volume, and Occ is the occupancy.

[3] = Radiochemical stability in the final formulation; format: physicochemical; details: at 1 h after the end of radiosynthesis
Protocol: [^11C]TASP0390136, [^11C]TASP0410457, and [^11C]TASP0434988 were synthesized as shown in Fig. 1a–c (detailed procedures are described in Additional file 1: Supplemental methods) using a homemade automated synthesis system. The radiochemical purities and specific activities of the radioligands, which were analyzed as described in Additional file 1: Supplemental Methods, along with their radiochemical yields and average synthesis times, are summarized in Table 1. Analytical HPLC chromatogram of each radioligand is shown in Additional file 2-4: Figures S1-S3. The radiochemical stabilities of [^11C]TASP0410457 and [^11C]TASP0434988 in the final formulation were >99 % at 1 h and 40 min, respectively, after the end of radiosynthesis.

[4] = parameters: method as in earlier work; details: humans; at 30 min; ref Kimura et al., manuscript submitted to Eur J Nucl Med Mol Imaging; cited from earlier work
[5] = SRTM, cerebellum as reference region

T1 sequence (Q9QYN8 whole entry): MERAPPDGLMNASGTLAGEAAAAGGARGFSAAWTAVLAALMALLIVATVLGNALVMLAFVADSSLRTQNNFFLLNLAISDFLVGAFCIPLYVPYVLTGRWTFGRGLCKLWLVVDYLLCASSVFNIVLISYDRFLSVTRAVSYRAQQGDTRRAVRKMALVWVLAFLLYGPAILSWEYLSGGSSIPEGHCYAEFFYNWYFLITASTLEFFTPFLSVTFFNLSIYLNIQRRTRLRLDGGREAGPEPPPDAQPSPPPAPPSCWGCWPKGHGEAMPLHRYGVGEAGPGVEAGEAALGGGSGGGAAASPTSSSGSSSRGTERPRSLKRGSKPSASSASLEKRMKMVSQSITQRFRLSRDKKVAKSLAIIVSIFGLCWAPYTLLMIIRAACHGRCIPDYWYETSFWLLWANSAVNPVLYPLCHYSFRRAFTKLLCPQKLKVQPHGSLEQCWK

[11CH3]Oc1ccc(N2C(=O)CCc3cc(OC4CCN(C5CCC5)CC4)ccc32)cn1 [[^11C]TASP0410457]
BPND, Hippocampus [1, 5]: 0.53 ± 0.06 | BPND, Striatum [1, 5]: 1.26 ± 0.12 | cerebellar SUV at 15 min after radioligand injection ([1]; baseline): 0.64 ± 0.13 | peak SUV, cerebellum ([1]; bolus intravenous, baseline): ~1.2 | peak SUV, hippocampus ([1]; bolus intravenous, baseline): around 1.5 | peak SUV, striatum ([1]; bolus intravenous, baseline): ~2.0 | time for specific binding to reach a pseudo-equilibrium state ([1]; target-to-reference ratios, after intravenous injection): ≤ 15 min | cerebellar SUV at 15 min after radioligand injection ([1]; thioperamide predosing 10 mg/kg): 0.47 ± 0.09 | specific radioligand binding as share of the radioactivity in the striatum [2]: more than 80% | Non-displaceable distribution volume ([2]; Lassen's plot): 4.0 mL/cm^3 | radiochemical stability in the final formulation [3]: > 99% | share of total plasma radioactivity arising from the metabolite [4]: 13%
